Measured values published in US12415939B2, “Nano-adhesive and surface primer compound and use thereof” (The Regents of the University of California, priority 2015, dated 2025).
Values belong to the compound of their own block, whether it stands above or below them.

Tests used:
[1] = Contact angle measurements on SAM-modified substrates; assay type: physicochemical; conditions: SAM-modified nano-grooved SiO2
Description: The nano-grooved SiO2 substrates passivated with Z-Cat-Ben or Z-Cat-Ben-F SAMs were prepared with the same procedure described above. For the reference substrate, the pre-cleaned and ultraviolet/ozone-treated (for 10 min) nano-grooved SiO2 substrate was passivated with n-decyltrichlorosilane (Gelest Inc.) in toluene solution (1% by volume) at 80° C. for 20 min in ambient air. Then, the substrate was subsequently sonicated in toluene and rinsed with additional toluene several times. Anhydrous chlorobenzene (50 μL) was used as a droplet dropping on the substrates. All contact angle images were taken at the direction perpendicular to nano-grooves in the substrates using Dataphysics OCA 15EC goniometer.

[2] = Lap joint bending peel test
Description: Below are the detailed methods following in sequential order in time: • 1) The aqueous Z-Cat-C10 solution was prepared at 100 mg ml^−1 concentration (very turbid solution at room temperature) (FIG. 10A test-tube on the left). • 2) The solution was centrifuged at 3000 rpm (805×g) for 5 min to expedite the process of liquid-liquid phase separation (FIG. 10A test-tubes in the middle and the right). 3) The lower dense coacervate phase was collected in a syringe (FIG. 24A) and injected (spread, ˜10 μl) over a steel plate immersed in water i.e., artificial sea water, aqueous periodate solution, and DI water, respectively (FIG. 24B). • 4) Another steel plate glued onto the steel plate with coacervates on as a lap joint (cross-sectional area 2.54 cm×2.54 cm. • 5) The each lap joint was loaded (250 g) for 12 h of compressive setting (FIG. 24C). • 6) The lap joint bending peel test was conducted underwater for each lap joint prepared in artificial seawater, aqueous periodate solution, and DI water, respectively (FIGS. 24D-24F). • 7) The lap joint bending peel test was conducted dry ambient condition for the lap joint prepared in the periodate solution after 12 h drying in ambient condition Standard Three Point Bending Peel Test
The catecholic zwitterions were inspired by interfacial proteins (mfp-3 and -5) that function as adhesive primers, but not as bulk adhesives. To determine whether Z-Cat-C10 is limited to surface binding or develops measurable bulk cohesion (thickness […]), bulk rupture tests were done using a peeling-by-bending test to better mimic the role that interfacial proteins play in resisting plaque detachment as well as lap-shear bonding test. Lap joints were prepared by gluing two steel plates (SS304) immersed in water using the lower dense coacervate (˜10 μl) (FIGS. 24A-24H). The lap joint (cross-sectional area=2.54 cm×2.54 cm) prepared in artificial seawater or periodate solution, respectively, held a load up to 3 N underwater. […] After 12 h ambient drying, the joint prepared in 1 M periodate solution held much higher load, 11 N: Standard three point bending peel strength of the lap joint (cross-sectional area=2.54 cm×1.27 cm) was measured under ambient dry conditions after drying 12 h. […] Shear bonding strength of the lap joint (cross-sectional area=2.54 cm×2.54 cm) was also measured, 1.1 MPa (standard deviation=0.3, n=4)—similar to Dopa-functionalized polypeptide prepared under ambient dry conditions, 0.9 MPa. […] Nevertheless, the results present that the zwitterionic surfactants were capable of micro-gap-filling as well as nano-gap-filling shown in AFM and SFA, and indicate that they are more versatile than surface primers. The results also attest to the self-assembling ability of Z-Cat-C10 (FIGS. 13A-13C, double bilayer structure).

[3] = Shear bonding strength of the lap joint; conditions: cross-sectional area 2.54 cm×2.54 cm, n=4
Description: The catecholic zwitterions were inspired by interfacial proteins (mfp-3 and -5) that function as adhesive primers, but not as bulk adhesives. To determine whether Z-Cat-C10 is limited to surface binding or develops measurable bulk cohesion (thickness […]), bulk rupture tests were done using a peeling-by-bending test to better mimic the role that interfacial proteins play in resisting plaque detachment as well as lap-shear bonding test. Lap joints were prepared by gluing two steel plates (SS304) immersed in water using the lower dense coacervate (˜10 μl) (FIGS. 24A-24H). The lap joint (cross-sectional area=2.54 cm×2.54 cm) prepared in artificial seawater or periodate solution, respectively, held a load up to 3 N underwater. […] After 12 h ambient drying, the joint prepared in 1 M periodate solution held much higher load, 11 N: Standard three point bending peel strength of the lap joint (cross-sectional area=2.54 cm×1.27 cm) was measured under ambient dry conditions after drying 12 h. […] Shear bonding strength of the lap joint (cross-sectional area=2.54 cm×2.54 cm) was also measured, 1.1 MPa (standard deviation=0.3, n=4)—similar to Dopa-functionalized polypeptide prepared under ambient dry conditions, 0.9 MPa. […]

contact angle θ of chlorobenzene droplet [1]: ≈ 1 °
SMILES: C[N+](C)(CCCc1ccccc1)CCOP(=O)([O-])OCCCc1ccc(O)c(O)c1 [Z-Cat-Ben]

SMILES: CN(C)CCOP(=O)(O)OCCCc1ccc(O)c(O)c1 [Z-Cat-C10]
load held by lap joint ([2]; dry ambient conditions (Z-Cat-C10 joint prepared in aqueous periodate)): ≤ 1.1 kg
load held by lap joint ([2]; prepared in 1 M periodate, after 12 h ambient drying): 11 N
load held by lap joint ([2]; prepared in DI water): 1 N
load held by lap joint ([2]; underwater, prepared in artificial seawater or periodate solution): up to 3 N
shear bonding strength of the lap joint [3]: 1.1 MPa
